Measurements taken from PubChem BioAssay AID1963436 (Molecular Pharmacology Branch, DTP, NCI, 2024).
Where “and” joins values, the source holds several entries; their conditions need not be identical. Identical values can stand only once.

Test system: OVCAR-5 complex spheroid (HUVEC/MSC), viability % T/C
Assay: Anticancer human tumor OVCAR-5 cell line growth inhibition [Asc];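 also: spheroids exposed to agents for 7 days before readout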;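 as to viability, T/C: 100% = DMSO vehicle-treated wells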
Settings: for viability, T/C: stronger effect = lower value
Procedure, shortened: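 Tumor cells were grown as complex spheroids with human endothelial cells (HUVEC) and human mesenchymal stem cells as stroma. Agents were tested alone and in combination, in half-log steps down from the clinical Cmax, or from 10 microM where Cmax was unknown.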

SMILES: CCN1C(C(=O)NC23CCC(C(=O)O)(CC2)CC3)C(c2cccc(Cl)c2F)C2(C(=O)Nc3cc(Cl)ccc32)C12CCCCC2 (configuration not stated) + Cc1c(S(C)(=O)=O)c(-c2cc(F)cc(N3CCN(c4ccc(NS(=O)(=O)c5ccc(NC(CCN6CCC(C(=O)OCCCP(=O)(O)O)CC6)CSc6ccccc6)c(S(=O)(=O)C(F)(F)F)c5)cc4)CC3)c2)c(-c2ccc(Cl)cc2)n1C(C)C
- IC50 (curve of first compound, second compound 0.1 µM): > 3000 nM
- IC50 (curve of first compound, second compound 0.316 µM): > 3000 nM
- IC50 (curve of first compound, second compound 1 µM): > 3000 nM
- IC50 (curve of first compound, second compound 3.16 µM): > 3000 nM
- IC50 (curve of first compound, second compound 10 µM): > 3000 nM
- viability, T/C (second compound 0.1 µM, first compound 0.00949 µM): 102%
- viability, T/C (second compound 0.1 µM, first compound 0.03 µM): 93.8%
- viability, T/C (second compound 0.1 µM, first compound 0.0949 µM): 93.1%
- viability, T/C (second compound 0.1 µM, first compound 0.3 µM): 86.9%
- viability, T/C (second compound 0.1 µM, first compound 0.949 µM): 97.3%
- viability, T/C (second compound 0.1 µM, first compound 3 µM): 92.5%
- viability, T/C (second compound 0.316 µM, first compound 0.00949 µM): 86.3%
- viability, T/C (second compound 0.316 µM, first compound 0.03 µM): 101%
- viability, T/C (second compound 0.316 µM, first compound 0.0949 µM): 90.2%
- viability, T/C (second compound 0.316 µM, first compound 0.3 µM): 82.8%
- viability, T/C (second compound 0.316 µM, first compound 0.949 µM): 91.3%
- viability, T/C (second compound 0.316 µM, first compound 3 µM): 83.3%
- viability, T/C (second compound 1 µM, first compound 0.00949 µM): 88%
- viability, T/C (second compound 1 µM, first compound 0.03 µM): 85.5%
- viability, T/C (second compound 1 µM, first compound 0.0949 µM): 88.5%
- viability, T/C (second compound 1 µM, first compound 0.3 µM): 86.9%
- viability, T/C (second compound 1 µM, first compound 0.949 µM): 75.4%
- viability, T/C (second compound 1 µM, first compound 3 µM): 83%
- viability, T/C (second compound 3.16 µM, first compound 0.00949 µM): 84.7%
- viability, T/C (second compound 3.16 µM, first compound 0.03 µM): 92.4%
- viability, T/C (second compound 3.16 µM, first compound 0.0949 µM): 97.4%
- viability, T/C (second compound 3.16 µM, first compound 0.3 µM): 78.7%
- viability, T/C (second compound 3.16 µM, first compound 0.949 µM): 74.1%
- viability, T/C (second compound 3.16 µM, first compound 3 µM): 69.3%
- viability, T/C (second compound 10 µM, first compound 0.00949 µM): 114%
- viability, T/C (second compound 10 µM, first compound 0.03 µM): 122%
- viability, T/C (second compound 10 µM, first compound 0.0949 µM): 126%
- viability, T/C (second compound 10 µM, first compound 0.3 µM): 111%
- viability, T/C (second compound 10 µM, first compound 0.949 µM): 102%
- viability, T/C (second compound 10 µM, first compound 3 µM): 89.8%

SMILES: O=C(c1ccc(F)c(F)c1Nc1ccc(I)cc1F)N1CC(O)([C@@H]2CCCCN2)C1
- viability, T/C (compound 0.00316 µM): 97.8% and 97.6% and 103%
- viability, T/C (compound 0.01 µM): 96.5% and 97.5% and 102%
- viability, T/C (compound 0.0316 µM): 69.4% and 74.8% and 72.2%
- viability, T/C (compound 0.1 µM): 53% and 61.5% and 50.5%
- viability, T/C (compound 0.316 µM): 44.4% and 51% and 47.7%
- viability, T/C (compound 1 µM): 30.7% and 36% and 33.2%
- IC50 (curve of compound): 134 nM and 265 nM and 103 nM
